Patent US20180133203A1, “METHODS OF TREATING LIVER DISEASE” (Gilead Sciences, Inc., priority 2016, published 2018)

Tests used:
Format in all cases: in vivo, male Wistar rats
CDHFD/NaNO2 rats [1] = experiment: Quantitative morphometric analysis of liver collagen by Picrosirius Red (PSR) staining in CDHFD/NaNO2 rat model of NASH; conditions: week 4 to 14; for PSR area (% area of liver): mean±SEM, vehicle-treated CDHFD/NaNO2 rats 8.5±0.6%, healthy control 1.7±0.3%, Formula (I) 0.2% in diet, Formula (III) 30 mg/kg/day; for reduction of liver collagen (PSR): vs vehicle-treated CDHFD/NaNO2 rats, Formula (I) 0.2% admixture in diet, Formula (III) 30 mg/kg/day in diet
Procedure: (§1) The following study was conducted to evaluate the efficacy of the combination of an ASK1 inhibitor and an FXR agonist in a rodent model of non-alcoholic steatohepatitis (NASH), relative to the efficacy of the individual agents alone in the model. NASH was induced in male Wistar rats by administration of a choline-deficient high fat diet (CDHFD) combined with the chronic administration of sodium nitrite (CDHFD/NaNO2). The model capitalizes on the “two hit theory” of NASH by inducing both metabolic dysfunction (CDHFD) and oxidative stress (NaNO2) in the liver to result in hepatic fibrosis that is similar in character and severity to that seen in patients with advanced NASH. Rats were fed CDHFD for a total of 14 weeks and were administered NaNO2 from week 4 to 14. The compound of Formula (III) (given as admixture in diet, adjusted to deliver 30 mg/kg/day), compound of Formula (I) (administered as a 0.2% admixture in diet), or vehicle was administered from week 4 to 14. The following endpoints were assessed at the completion of the 14 week study: i) liver fibrosis measured by liver hydroxyproline (OHP) content and by quantitative morphometric analysis of collagen content by Picosirius red (PSR) staining; ii) myofibroblast activation in liver sections as measured by quantitative IHC of the myofibroblast marker desmin; and, iii) Col1a1 and Timp1 in liver tissue measured by RT-PCR. All CDHFD/NaNO2 animals were fed a choline-deficient high-fat diet (CDHFD; Research Diets, Inc) for 14 weeks and were also administered intraperitoneal injections of NaNO2 (3 injections per week; Sigma Aldrich #31443) at a dose of 25 mg/kg (from week 4 to 10) and at a dose of 12.5 mg/kg (from week 10 to 14). Formula (III) (given as admixture in the CDHFD diet, adjusted to deliver 30 mg/kg/day, n=10 animals per group) and Formula (I) (given as a 0.2% admixture in the CDHFD diet, n=10 per group) were administered drug from week 4 to 14. Vehicle control animals were administered the same CDHFD diet with no drug added (Vehicle; n=10 animals per group) from week 4 to 14. […] On the final day of study, rats received a single oral gavage of either Formula (I) or Formula (III) at a dose of 30 mg/kg, four hours before animals were euthanized and tissues were collected for analyses. All endpoints were assessed at the completion of the 14 week study protocol. Whole slide images of Picrosirius Red (PSR) and Desmin stained slides were captured using a Leica AT2 scanner at 40× magnification. […] Quantitative image analysis was performed on the whole slide-scan images using Definiens Tissue Studio Architect XD (Definiens Inc.) to determine the extent and intensity of PSR and Desmin. […] The total PSR-stained area and Desmin IHC staining were measured and expressed as a percentage of total liver area stained.

Col1a1 = experiment: Hepatic expression of Col1a1 by qRT-PCR, CDHFD/NaNO2 rat model of NASH; conditions: vs vehicle; rats; Formula (I) 0.2% in diet, Formula (III) 30 mg/kg/day, week 4 to 14
Procedure: (§2) The following study was conducted to evaluate the efficacy of the combination of an ASK1 inhibitor and an FXR agonist in a rodent model of non-alcoholic steatohepatitis (NASH), relative to the efficacy of the individual agents alone in the model. NASH was induced in male Wistar rats by administration of a choline-deficient high fat diet (CDHFD) combined with the chronic administration of sodium nitrite (CDHFD/NaNO2). The model capitalizes on the “two hit theory” of NASH by inducing both metabolic dysfunction (CDHFD) and oxidative stress (NaNO2) in the liver to result in hepatic fibrosis that is similar in character and severity to that seen in patients with advanced NASH. […] The following endpoints were assessed at the completion of the 14 week study: i) liver fibrosis measured by liver hydroxyproline (OHP) content and by quantitative morphometric analysis of collagen content by Picosirius red (PSR) staining; ii) myofibroblast activation in liver sections as measured by quantitative IHC of the myofibroblast marker desmin; and, iii) Col1a1 and Timp1 in liver tissue measured by RT-PCR. […] All endpoints were assessed at the completion of the 14 week study protocol. […] Quantitative PCR was performed and analyzed using Absolute QPCR Rox Mix (Life Technologies, Cat No # AB-1132) and a 384-format ABI 7900HT Sequence Detection System (Applied Biosystems). […]

TIMP-1 = experiment: Hepatic expression of TIMP-1 by qRT-PCR, CDHFD/NaNO2 rat model of NASH; conditions: vs vehicle; rats; Formula (I) 0.2% in diet, Formula (III) 30 mg/kg/day, week 4 to 14
Procedure: as §2

CDHFD/NaNO2 rats [2] = experiment: Quantitative IHC of the myofibroblast marker desmin in liver, CDHFD/NaNO2 rat model of NASH; conditions: for liver % desmin marker area: mean±SEM, vehicle-treated CDHFD/NaNO2 rats 10.3±0.8%, healthy control 0.7±0.1%; for reduction of liver desmin staining: vs vehicle-treated CDHFD/NaNO2 rats, Formula (I) 0.2% in diet, Formula (III) 30 mg/kg/day, week 4 to 14
Procedure: as §1

SMILES	PSR area (% area of liver) (CDHFD/NaNO2 rats [1])	reduction of liver collagen (PSR) (CDHFD/NaNO2 rats [1])	reduction of hepatic Col1a1 expression induced by CDHFD/NaNO2 (Col1a1)	reduction of hepatic TIMP-1 expression induced by CDHFD/NaNO2 (TIMP-1)	liver % desmin marker area (CDHFD/NaNO2 rats [2])	reduction of liver desmin staining (CDHFD/NaNO2 rats [2])
O=C(O)c1ccnc(N2CC(O)(c3ccc(OCc4c(-c5c(Cl)cccc5Cl)noc4C4CC4)cc3Cl)C2)c1 [Formula (III)]	6.6±0.9%	22%	44%	did not significantly reduce	5.9±0.7%	43%
O=C(Nc1cccc(-c2nncn2C2CC2)c1)c1cc(-n2cnc(C3CC3)c2)ccn1 [Formula (I)]	6.2±1.1%	27%	65%	28%	5.6±0.7%	46%
